From US20170327598A1, “SINGLE DOMAIN ANTIBODIES DIRECTED AGAINST INTRACELLULAR ANTIGENS” (SINGH MOLECULAR MEDICINE, LLC, priority 2014, published 2017)
Several values for one entry are separate records, joined by “and”; a condition that tells them apart may be missing. Equal entries are not always repeated. Numbered stars: 1 amine (or outer) side, 2 acyl side, 3 side chain; on linkers, the order of the positions; unused ones are H or OH. Bridge positions count the residues as written; N and C are the ends. Square brackets hold non-standard residues; d marks the D form. Peptide text beside a SMILES is read from it. I, II: the chains in the order shown. Actinocin(9to1) = Cc1c2oc3c(C)ccc(C(=O)[*:1])c3nc-2c(C(=O)[*:2])c(N)c1=O; NMeV = CN[C@H](C(=O)O)C(C)C; Sar = CNCC(=O)O

Tested on: L929 cells
Test: Percent toxicity of control wells in L929 cells
Format: cell-based, mouse
Conditions: Actinomycin D only (no TNFα), sample replicates

## Cc1c2oc3c(C)ccc(C(=O)N[C@@H]4C(=O)N[C@H](C(C)C)C(=O)N5CCC[C@H]5C(=O)N(C)CC(=O)N(C)[C@@H](C(C)C)C(=O)O[C@@H]4C)c3nc-2c(C(=O)N[C@@H]2C(=O)N[C@H](C(C)C)C(=O)N3CCC[C@H]3C(=O)N(C)CC(=O)N(C)[C@@H](C(C)C)C(=O)O[C@@H]2C)c(N)c1=O [Actinomycin D] (I: T[dV]P[Sar][NMeV] / II: T[dV]P[Sar][NMeV]; ester I:1-I:C, II:1-II:C; linker I:N-II:N via Actinocin(9to1))
Assay 1
  % Toxicity: 18.6% and 5.4% and 2.3% and 3.5% and 0% (8×)
Assay 2
  % Toxicity: 2.3% and 0% (4×) and 10.4% and 0.4%
